Source: patent publication US7713971B2, “1,2,4-triazine derivatives, preparation and use thereof in human therapy” (Pierre Fabre Medicament, priority 2005, dated 2010)
Like-named read-outs stand apart in the source and are kept apart here.

Assays:
human PPARα = molecular target: T1, human PPARα (Homo sapiens, UniProt Q07869); experiment: Reporter gene transactivation, hPPAR-GAL4 alpha; assay type: cell-based; details: transfected Cos-7 cells, Gal-4 luciferase reporter, 24 hours treatment
T1 construct: expressed in transfected cells; host or cells: Cos-7 cells (ATCC, CRL-1651)
T1 sequence (Q07869 239-466 limits assumed): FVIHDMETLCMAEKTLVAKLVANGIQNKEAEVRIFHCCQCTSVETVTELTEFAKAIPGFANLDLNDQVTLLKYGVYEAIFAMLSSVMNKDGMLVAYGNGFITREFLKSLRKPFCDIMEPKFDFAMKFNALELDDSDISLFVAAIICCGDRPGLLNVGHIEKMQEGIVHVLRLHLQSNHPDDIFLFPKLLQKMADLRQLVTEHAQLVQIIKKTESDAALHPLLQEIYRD

human PPARγ = molecular target: T2, human PPARγ (Homo sapiens, UniProt P37231); experiment: Reporter gene transactivation, hPPAR-GAL4 gamma; assay type: cell-based; details: transfected Cos-7 cells, Gal-4 luciferase reporter, 24 hours treatment
T2 construct: expressed in transfected cells; host or cells: Cos-7 cells (ATCC, CRL-1651)
T2 sequence (P37231 238-503 limits assumed): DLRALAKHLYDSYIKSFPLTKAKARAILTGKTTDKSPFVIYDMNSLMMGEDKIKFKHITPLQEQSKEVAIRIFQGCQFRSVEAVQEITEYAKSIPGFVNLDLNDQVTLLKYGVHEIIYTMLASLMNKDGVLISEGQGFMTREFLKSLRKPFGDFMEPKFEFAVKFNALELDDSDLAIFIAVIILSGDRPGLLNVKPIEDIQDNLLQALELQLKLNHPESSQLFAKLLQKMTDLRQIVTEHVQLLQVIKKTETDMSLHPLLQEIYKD

human PPARδ = molecular target: T3, human PPARδ (Homo sapiens, UniProt Q03181); experiment: Reporter gene transactivation, hPPAR-GAL4 delta; assay type: cell-based; details: transfected Cos-7 cells, Gal-4 luciferase reporter, 24 hours treatment
T3 construct: expressed in transfected cells; host or cells: Cos-7 cells (ATCC, CRL-1651)
T3 sequence (Q03181 211-439 limits assumed): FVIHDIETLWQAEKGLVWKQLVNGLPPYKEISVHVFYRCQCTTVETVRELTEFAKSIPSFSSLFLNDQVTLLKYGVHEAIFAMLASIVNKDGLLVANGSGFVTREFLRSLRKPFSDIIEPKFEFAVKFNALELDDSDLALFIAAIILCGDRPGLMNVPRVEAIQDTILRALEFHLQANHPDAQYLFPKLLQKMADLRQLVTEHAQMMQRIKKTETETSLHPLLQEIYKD

[1] = system: insulin-resistant male rat (Ico: ZUCKER-fa/fa); experiment: Normalization of metabolic parameters (cholesterol, plasma triglycerides) in insulin-resistant rat; assay type: in vivo; details: oral route, once per day for four days, Zucker fa/fa rat unfed 16-18 hours; for change in vivo at 10 mg/kg / change in vivo at 2.5 mg/kg: 96 h
Experimental: Normalization of metabolic parameters (cholesterol, plasma triglycerides) in an insulin-resistant male rat (Ico: ZUCKER-fa/fa), unfed for 16-18 hours, after treatment by oral route, once per day for four days, with the compounds to be evaluated or their administration vehicle.
These metabolic parameters are measured by spectrophotometry at the beginning and the end of each animal's treatment.

[2] = at 10 mg/kg, read-out: Plasma cholesterol
[3] = at 2.5 mg/kg, read-out: Plasma cholesterol
[4] = at 10 mg/kg, read-out: Plasma triglycerides

Row | EC50 (human PPARα) [nM] | EC50 (human PPARγ) [nM] | EC50 (human PPARδ) [nM] | SMILES | change in vivo at 10 mg/kg [1, 2] [%] | Plasma triglycerides ([1]; at 10 mg/kg) | change in vivo at 2.5 mg/kg [1, 3] [%] | change in vivo at 10 mg/kg [1, 4] [%] | Plasma cholesterol ([1]; at 2.5 mg/kg) | Plasma triglycerides ([1]; at 2.5 mg/kg) | change in vivo at 2.5 mg/kg ([1]; at 2.5 mg/kg, read-out: Plasma triglycerides) [%]
1 | 30 to 100 | > 10000 | ~10000 | CCOC(=O)C(C)(C)Oc1cccc(CCCNc2nn(CCCC(F)(F)F)c(=O)n(CCCC(F)(F)F)c2=O)c1 [Example 66, Ethyl 2-(3-{3-[3,5-dioxo-2,4-bis-(4,4,4-trifluoro-butyl)-2,3,4,5-tetrahydro-[1,2,4]triazin-6-ylamino]-propyl}-phenoxy)-2-methyl-propionate] | -9 | inactive at 10 | – | – | – | – | –
2 | 3 to 10 | ~300 | 1000 to 3000 | CCCCCCCn1nc(NCCCCc2cccc(OC(C)(C)C(=O)O)c2)c(=O)n(CCCC(F)(F)F)c1=O [Example 84, 2-(3-{4-[2-Heptyl-3,5-dioxo-4-(4,4,4-trifluoro-butyl)-2,3,4,5-tetrahydro-[1,2,4]triazin-6-ylamino]-butyl}-phenoxy)-2-methyl-propionic Acid] | -13 | – | – | -7 | inactive at 2.5 | inactive at 2.5 | –
3 | 1000 to 3000 | ~10000 | 1000 to 3000 | CCCCCCCN(CCc1ccc(OC(C)(C)C(=O)OCC)cc1)c1nn(C)c(=O)n(C)c1=O [Example 112, Ethyl 2-(4-{2-[(2,4-dimethyl-3,5-dioxo-2,3,4,5-tetrahydro-[1,2,4]triazin-6-yl)-heptyl-amino]-ethyl}-phenoxy)-2-methyl-propionate] | -43 | – | – | -31 | – | – | –

Continued, compound first:

Row | SMILES | EC50 (human PPARα) [nM] | EC50 (human PPARγ) [nM] | EC50 (human PPARδ) [nM] | change in vivo at 10 mg/kg [1, 2] [%] | Plasma triglycerides ([1]; at 10 mg/kg) | change in vivo at 2.5 mg/kg [1, 3] [%] | change in vivo at 10 mg/kg [1, 4] [%] | Plasma cholesterol ([1]; at 2.5 mg/kg) | Plasma triglycerides ([1]; at 2.5 mg/kg) | change in vivo at 2.5 mg/kg ([1]; at 2.5 mg/kg, read-out: Plasma triglycerides) [%]
4 | CCOC(=O)C(C)(C)Oc1cccc(CCCCNc2nn(CCCC(F)(F)F)c(=O)n(CC=C(C)C)c2=O)c1 [Example 76, Ethyl 2-methyl-2-(3-{4-[4-(3-methyl-but-2-enyl)-3,5-dioxo-2-(4,4,4-trifluoro-butyl)-2,3,4,5-tetrahydro-[1,2,4]triazin-6-ylamino]-butyl}-phenoxy)-propionate] | 10 to 30 | 1000 to 3000 | 3000 to 10000 | -22 | – | -16 | -7 | – | – | –
5 | CCOC(=O)C(C)(C)Oc1cccc(CCCCNc2nn(CCCC(F)(F)F)c(=O)n(CCCC(F)(F)F)c2=O)c1 [Example 80, Ethyl 2-(3-{4-[3,5-dioxo-2,4-bis-(4,4,4-trifluoro-butyl)-2,3,4,5-tetrahydro-[1,2,4]triazin-6-ylamino]-butyl}-phenoxy)-2-methyl-propionate] | 10 to 30 | 300 to 1000 | > 10000 | -16 | inactive at 10 | – | – | – | – | –
6 | Cn1nc(NCCCCc2cccc(SC(C)(C)C(=O)O)c2)c(=O)n(CCCC(F)(F)F)c1=O [Example 96, 2-Methyl-2-(3-{4-[2-methyl-3,5-dioxo-4-(4,4,4-trifluoro-butyl)-2,3,4,5-tetrahydro-[1,2,4]triazin-6-ylamino]-butyl}-phenylsulfanyl)-propionic Acid] | 30 to 100 | ~10000 | > 10000 | -21 | – | -28 | -60 | – | – | -26
7 | CCCCCCCN(CCc1ccc(OC(C)(C)C(=O)O)cc1)c1nn(C)c(=O)n(C)c1=O [Example 113, 2-(4-{2-[(2,4-Dimethyl-3,5-dioxo-2,3,4,5-tetrahydro-[1,2,4]triazin-6-yl)-heptyl-amino]-ethyl}-phenoxy)-2-methyl-propionic Acid] | 300 to 1000 | 3000 to 10000 | 300 to 1000 | -40 | – | -30 | -26 | – | inactive at 2.5 | –
